From US6383488B1, “Pre-M/M epitopes of dengue virus, synthetic peptides, chimeric proteins and their use” (priority 1997, dated 2002)
Entries after “also recorded” stand apart in the source; their conditions may differ.

Legend:
[1] = system: Dengue virus serotype 1 (D1); assay: In vitro plaque-reduction neutralization test (PRNT) of anti-peptide sera, serotype D1; assay type: cell-based; settings: sera of Balb/c mice immunized with peptide-BSA conjugate; titer = dilution giving 50% plaque number reduction; BHK-21 cells
[2] = system: Dengue 2 virus (strain A 15); assay: In vitro plaque-reduction neutralization test (PRNT) of anti-peptide sera, serotype D2; assay type: cell-based; settings: sera of Balb/c mice immunized with peptide-BSA conjugate; titer = dilution giving 50% plaque number reduction; BHK-21 cells
Protocol: Neutralization technique was carried out according to Morens (Morens, D. M. et al. 1985. Simplified plaque reduction neutralization assay for dengue viruses by semimicro methods in BHK-21 cells: Comparison of the BHK suspension test with standard plaque reduction neutralization. J. Clin. Microbiol. 22 p.250).
Dilutions of anti-peptide sera and of anti-BSA controls and negative sera from 1/10 to 1/640 were prepared. Each dilution of sera was put into contact with a dilution of the virus (strain A 15 of Dengue 2) having 15-20 PFU/50 ml.
The mixture was incubated at 37 C. during 1 hour. A total of 50 ml of each mixture were added in triplicate to BHK-21 cells in plates of 24 wells, and they were incubated in a CO2 incubator at 37 C. during 4 hours. Then, 0.5 ml of carboxymethylcellulose-containing medium were added, and it was incubated again for several days considering the viral serotype used. After these days tinction and the count of lysis plaques produced by the virus were carried out.
Titer was expressed in each case as the dilution at which it was obtained the 50% of plaque number reduction.

[3] = system: Dengue virus serotype 3 (D3); assay: In vitro plaque-reduction neutralization test (PRNT) of anti-peptide sera, serotype D3; assay type: cell-based; settings: sera of Balb/c mice immunized with peptide-BSA conjugate; titer = dilution giving 50% plaque number reduction; BHK-21 cells
[4] = system: Dengue virus serotype 4 (D4); assay: In vitro plaque-reduction neutralization test (PRNT) of anti-peptide sera, serotype D4; assay type: cell-based; settings: sera of Balb/c mice immunized with peptide-BSA conjugate; titer = dilution giving 50% plaque number reduction; BHK-21 cells
[5] = system: four Dengue virus serotypes; assay: Induction of neutralizing antibodies (summary statement); assay type: cell-based; settings: against the four Dengue virus serotypes; immunized mice
Protocol: Peptides were inoculated in Balb/c mice both conjugated or not to a carrier protein. The sera obtained after immunization with the conjugated peptides were tested by in vitro neutralization by reducing the number of plaques and by ELISA. We also studied the active protection against a Dengue 2 viral challenge in the immunized mice.

[6] = system: anti-peptide antibodies in sera of Dengue patients; assay: Indirect ELISA to detect anti-peptide antibodies, human sera; assay type: binding; settings: 118 sera of Dengue patients diluted 1/200; for Percentage of positivity of human sera to peptide: peptide coated at 10 µg/ml
Protocol: Peptides 19-6, 20-1, 20-2, 20-3 were fixed to the plates in a 10 m g/ml concentration in coating buff they were incubated at 4 C. overnight Sera were added diluted 1/200 in PBS-Tween 20. Finally, total human /peroxidase anti-immunoglobuline conjugate was added, and subsequently, the substrate (orthophenylendiamine, H2O2, 0.05 M phosphate citrate buffer, pH 5) was added. The reading was carried out in an ELISA reader at 492 nm and the cut-off value for each peptide was determined.
The sera used were from subjects having viral clinical infection that was serologically diagnosed as Dengue by the techniques of Inhibition of the hemagglutination (Clarke, D. H. y Casals, J. 1958. Techniques for hemagglutination and hemagglutination—inhibition with Arthropod Borne Virus. Am. J. Trop. Med. Hyg. 7 p.561) and ELISA of inhibition (Vzquez, S., Fernndez, R. 1989. Utilizacin de un mtodo de ELISA de Inhibicin en el diagnstico serolgico de dengue. Rev. Cub. Med. Trop. 41(1) p18-26) for total anti-dengue antibodies.
The study induded 118 sera from patents of the epidemics occurred in Cuba 1981, Panama 1994 and Costa Rica 1994. Dengue virus 2 was isolated in these epidemics, besides serotype 1 and 4 in Costa Rica; they were classified according to the titers of inhibiting antibodies of hemagglutination in cases of primary and secondary infections.

[7] = system: spleen T lymphocytes cultured with dengue 2 virus; assay: In vitro blastogenesis assay of spleen T lymphocytes from peptide-immunized mice; assay type: cell-based, BALB/c mice; settings: mice immunized with non-conjugated peptides; cells cultured with dengue 2 virus
Protocol: T cells from 19-6 and 19-5 immunized mice proliferated in an in vitro blastogenesis assay when they were cultured with the dengue 2 virus. […] It could contain a T cell cryptic epitope, being recognized in the free form of peptide but not like a result of the immunodominant epitopes presentation and processing of the virus in a natural infection.
FIG. 5. Proliferative response to dengue 2 virus antigens (at concentrations of 10, 20 and 40 m g/ml) of spleen T cells from peptides-immunized mice 19-6, 19-5 and 20-2.

[8] = system: live, mouse-adapted dengue-2 virus (strain A15); assay: Protection assay, intracranial challenge of immunized mice; assay type: in vivo, Balb/c mice; settings: mice immunized with conjugated peptides; 100 LD50 intracranial; observed up to 21 days; Fisher's test, p<0,05
Protocol: Male Balb/c mice of 4-6 weeks old were immunized with 50 mg of the peptide-BSA conjugate intraperitoneally. In addition, two immunization schemes were performed, one with BSA and the other with PBS. A total of 4 inoculations were carried out, each of them 15 days apart. The Freund's Complete Adjuvant was used in the first doses, and the Freund's Incomplete Adjuvant in the others. A blood sample was extracted from the retro-orbital vein seven days after the last inoculation.
Mice were challenged 7 days after the last immunization by intracraneal injection with an dilution of 1/2500 (corresponding to 100 LD50 lethal doses) of live, mouse-adapted dengue-2 virus (strain A15). […] Data were tested for statistical significance using Fisher's test.

synthetic peptides = assay: ELISA of sera from mice immunized with fusion proteins, against the synthetic peptides; assay type: binding; settings: mouse immunization with semipurified fusion proteins
Excerpt: Mouse immunization with PD33 and PD34 fusion proteins semipurified by a non-denaturalizing protocol, has elicited high titers against them in ELISA (up to 1/100 000), and at the same time antibodies with titers up to 1/4000 in ELISA against the synthetic peptides have been obtained.

## LETRTETWMSSEGAWKHAQRIE [B 20-3]
[1]
  Anti-peptide neutralization titer, D1: 1/110
[2]
  Anti-peptide neutralization titer, D2: 1/80
[3]
  Anti-peptide neutralization titer, D3: 1/80
[4]
  Anti-peptide neutralization titer, D4: 1/80
[5]
  Induction of neutralizing antibody production: able to induce neutralizing antibody production
[6]
  Average of the reactivity index (optical density of the sample/cut-off value): 1.49
  Percentage of positivity of human sera to peptide: 83.1%

## LTTRNGEPHMIVMRQEKGKSLLFKTGDGV [B 19-6]
[1]
  Anti-peptide neutralization titer, D1: 1/100
[2]
  Anti-peptide neutralization titer, D2: 1/180
[3]
  Anti-peptide neutralization titer, D3: 1/60
[4]
  Anti-peptide neutralization titer, D4: 1/160
[5]
  Induction of neutralizing antibody production: able to induce neutralizing antibody production
[7]
  Virus-specific proliferative response of spleen T lymphocytes: Virus-specific proliferative responses were demonstrated; also recorded: proliferated
[8]
  Level of protection (survival) after Dengue 2 virus challenge: statistically significant; also recorded: statistically significative level of protection
[6]
  Average of the reactivity index (optical density of the sample/cut-off value): 1.07
  Percentage of positivity of human sera to peptide: 56.8%

## RQNEPEDIDCWCNSTSTWVTYGTCTTTGEHRREKRS [B 19-5]
[7]
  Virus-specific proliferative response of spleen T lymphocytes: Virus-specific proliferative responses were demonstrated; also recorded: proliferated
[8]
  Level of protection (survival) after Dengue 2 virus challenge: statistically significant; also recorded: statistically significative level of protection

## NSTSTWVTYGTCTTTGEHRREKRSV [B 20-1]
[8]
  Level of protection (survival) after Dengue 2 virus challenge: statistically significant; also recorded: statistically significative level of protection
[6]
  Average of the reactivity index (optical density of the sample/cut-off value): 1.52
  Percentage of positivity of human sera to peptide: 79.6%

## CEDTITYKCPLLRQNEPEDIDCW [B 20-2]
[7]
  Virus-specific proliferative response of spleen T lymphocytes: did not elicit a significant proliferative response
[6]
  Average of the reactivity index (optical density of the sample/cut-off value): 1.57
  Percentage of positivity of human sera to peptide: 77.1%

B1: PD33 (protein)
chain: MALVELKVPDIGGHENVDIIAVEVNVGDTIAVDDTLITLDLESVALTPHSGMGLETRAETWMSSEGAWKHAQRVESWILRNPRFLEMDVPAEVAGVVKEVKVKVGDKISEGGLIVVVEAEGTAAAPKAEAAAAPAQEAPKAAAPAPQAAQFGGSADAEYDVVVLGGGPGGYSAAFAAADEGLKVAIVERYKTLGGVCLNVGCIPSKALLHNAAVIDEVRHLAANGIKYPEPELDIDMLRAYKDGVVSRLTGGLAGMAKSRKVDVIQGDGQFLDPHHLEVSLTAGDAYEQAAPTGEKKIVAFKNCIIAAGSRVTKLPFIPEDPRIIDSSGALALKEVPGKLLIIGGGIIGLEMGTVYSTLGSRLDVVEMMDGLMQGADRDLVKVWQKQNEYRFDNIMVNTKTVAVEPKEDGVYVTFEGANAPKEPQRYDAVLVAAGRAPNGKLISAEKAGVAVTDRGFIEVDKQMRTNVPHIYAIGDIVGQPMLAHKAVHEGHVAAENCAGHKAYFDARVIPGVAYTSPEVAWVGETELSAKASGRKITKANFPWAASGRAIANGCDKPFTKLIFDAETGRIIGGGIVGPNGGDMIGEVCLAIEMGCDAADIGKTIHPHPTLGESIGMAAEVALGTCTDLPPQKKK
Synthetic peptides
  ELISA antibody titers against the synthetic peptides: up to 1/4000
